Test results from US8552048B2, “Phosphoramidate alkylator prodrugs for the treatment of cancer” (Threshold Pharmaceuticals, Inc., priority 2006, dated 2013).
Entries after “also recorded” stand apart in the source; their conditions may differ.

How the values were obtained:
[1] = Stability of ethanol formulation of TH302 by HPLC; type: physicochemical; conditions: for TH302 (%): 40 μg/mL in ethanol
Protocol: A liquid formulation of TH302 in ethanol was prepared containing 1 mg TH302 in 1 mL of the solution. Aliquots were withdrawn from this formulation and diluted with ethanol to yield a 40 μg/mL formulation of TH302 in ethanol, which was incubated at 20° C. and 37° C. and the stability analyzed by high performance liquid chromatography (HPLC). The HPLC employed the following components and conditions: column (Alltech, Alltima C18, 50×4.6, 3 μm), mobile phase (water and acetonitrile), flow rate 0.8 mL/min, injection volume (10 μL), detection (UV detection at 325 nm and 254 nm), and column temperature (room temperature). The composition of the mobile phase was as tabulated below: […]

[2] = tested on: IGROV1 human ovarian cancer cells; assay: IGROV1 ovarian cancer xenograft; type: in vivo; conditions: 75 mg/kg i.v. Q7D×2
Protocol: Forty nude mice were subcutaneously implanted with IGROV1 human ovarian cancer cells (5×10^6 cells/mouse). The tumor volumes were measured twice weekly starting on day 7. On day 8, tumor volumes reached about 97.7±3.9 mm^3. The mice were randomized in 3 treatment groups that were administered the following: CDDP (4 mg/kg, ip, Q7D×2), CDDP (6 mg/kg, i.p. Q7D×2), and TH302 (75 mg/kg, i.v., Q7D×2). A control group of mice were administered saline. […] Forty five days after the first administration of TH302, tumor growth inhibition was 66%. The tumor growth delay (to 300 mm^3) was 19 days.

[3] = tested on: H460 human non small cell cancer (NSCLC) cells; assay: H460 tumor excision clonogenic assay (surviving fraction) under different oxygen levels; type: in vivo, mice; conditions: single 50 mg/kg i.v., tumors removed 24 h post treatment
Protocol: H460 human non small cell cancer (NSCLC) cells were prepared in 30% or 50% matrigel in PRIM medium. Then 2×10^6 cells suspended in 50% matrigel were implanted subcutaneously in the right flank in 35 mice (0.2 mL/mouse), 0.5×10^6 cells suspended in 30% matrigel were similarly implanted in 30 mice. Mice bearing similar sized tumors, preferably ˜300 mm^3 were selected for TH302 administration. TH302 was formulated in saline and a single dose administered intravenously at 50 mg/kg.
The mice were placed in 95% and 10% O2 chamber for 30 min before the dosing and returned to the chamber for 2 hours immediately after treatment. Twenty-four hours post treatment, tumors were removed. The tumor tissue was minced and obtain single cells were obtained by digesting the minced tissue with an enzyme cocktail for 15 min at 37° C. with stirring, and filtering through a 40 μm sterile mash. Cell numbers were counted by a coulter counter. After a serial dilution, the ells were placed in a 60 or 100 mm Petri dish and incubated at 37° C. for 8 to 10 days for the colonies to form. The colonies were counted after stained with crystal violet (0.25% in 95% ethanol). The plating efficiency (PE) was calculated by dividing the number of colonies formed by the number of cells seeded. The surviving fraction (SF) was calculated by dividing as the PE of treated cells by PE of the cells from saline control.

[4] = tested on: PC-3 human prostate cells; assay: PC-3 luciferase intracardiac metastasis model (bioluminescence); type: in vivo, nude mice
Protocol: Male nude mice were injected into their left ventricle with PC-3 human prostate cells (3×10^6) transfected with the gene for luciferase. The success of the intracardiac transfections was verified by a bioluminescence scan after the injection. On day 14, the mice with established bone tumor burden were randomized into four treatment groups (N=10): Taxotere® alone (20 mg/kg once a week for three weeks, i.v.), TH302 alone (50 mg/kg daily, 5 days a week for 3 weeks), combination treatment with both agents, and vehicle. Bioluminescence imaging was performed under anesthesia using an IVIS 50 optical imaging system.

H460 NSCLC cancer cells = assay: H460 pleural cavity metastatic tumor model; type: in vivo, mice; conditions: TH302 alone Q3D×5, 100 mg/kg, i.v.
Protocol: Metastatic tumors were also grown in mice by injecting H460 NSCLC cancer cells into the pleural cavity. Metastases were observed among other organs in the lungs and ovary. […] Thus, TH302 is effective in treatment of metastatic tumors, when administered alone and in combination with another anti cancer agent.

[5] = Single-dose toxicity in dogs; type: in vivo
Protocol: A single-dose of TH302 was administered to rats and dogs over 30 min in order to achieve a rapid increase to relatively high drug levels. Rats were administered 50, 100, and 200 mg/kg, and dogs at 8, 16 and 32 mg/kg of TH302. […] These changes at the lowest toxicity level were fully reversible within 2 weeks.

[6] = Pharmacokinetics in beagle dogs (20 mg/kg i.v.); type: in vivo; conditions: dog, plasma, iv
Protocol: Pharmacokinetic studies were performed in male CD-1 (50 mg/kg i.p. or orally (p.o.)) or female nude mice (50 mg/kg i.v. or i.p.), male Sprague-Dawley rats (1, 5, 20 and 50 mg/kg i.v. and 100 mg/kg, p.o.), beagle dogs (20 mg/kg, i.v.) and cynomologus monkeys (20 mg/kg i.v.). Plasma TH302 concentrations were analyzed using a LC/MS method and the pharmacokinetic parameters computed using a noncompartmental method. Interspecies scaling was performed according to standard methods.

[7] = TH302 alone 50 mg/kg daily, 5 days a week for 3 weeks, end of the study (day 43)

Structure (SMILES): Cn1c(COP(=O)(NCCBr)NCCBr)cnc1[N+](=O)[O-] [TH302]
- TH302 (%) ([1]; 20° C., incubated 0 days): 96.97%
- TH302 (%) ([1]; 20° C., incubated 3 days): 96.98%
- TH302 (%) ([1]; 20° C., incubated 5 days): 96.91%
- TH302 (%) ([1]; 20° C., incubated 7 days): 96.96%
- TH302 (%) ([1]; 20° C., incubated 10 days): 96.95%
- TH302 (%) ([1]; 20° C., incubated 14 days): 96.98%
- TH302 (%) ([1]; 37° C., incubated 0 days): 96.97%
- TH302 (%) ([1]; 37° C., incubated 3 days): 96.95%
- TH302 (%) ([1]; 37° C., incubated 5 days): 96.98%
- TH302 (%) ([1]; 37° C., incubated 7 days): 96.98%
- TH302 (%) ([1]; 37° C., incubated 10 days): 96.30%
- TH302 (%) ([1]; 37° C., incubated 14 days): 96.01%
- TH302 (%) ([1]; 37° C., incubated 24 days): 95.46%
- stability of solution in ethyl alcohol ([1]; 20° C., under the test conditions): stable
- body weight during the treatment period [2]: body weight gain
- tumor growth delay (to 300 mm^3) [2]: 19 days
- growth inhibition (significance) ([2]; P<0.05): significant growth inhibition
- tumor growth inhibition ([2]; forty five days after the first administration): 66%
- mean surviving fraction (SF) ([3]; mice breathing 10% O2): 2.58%
- mean surviving fraction (SF) ([3]; mice breathing 21% O2): 5.76%
- mean surviving fraction (SF) ([3]; mice breathing 95% O2): 50.38%
- toxicities (weight loss, deaths) ([4]; TH302 50 mg/kg daily 5 days a week for 3 weeks, Taxotere 20 mg/kg once a week for three weeks i.v., or both): minimal weight loss; also recorded: no toxicity beyond Taxotere® related toxicities
- reduction of bone metastases [4, 7]: 94%
- reduction of soft tissue tumor burden [4, 7]: 95%
- metastatic tumor mass (H460 NSCLC cancer cells): visible reduction in metastatic tumor mass
- affected organs at the highest dose level ([5]; 32 mg/kg single dose): bone marrow, kidney, thymus and intestine
- lethality ([5]; single dose over 30 min, highest dose 32 mg/kg): lethality was observed
- primary findings at the lowest toxicity level ([5]; single dose study): reduction in white blood cell counts
- time to full reversal of changes at the lowest toxicity level ([5]; single dose study): ≤ 2 weeks
- half-life ([6]; read-out: Mean t1/2): 49.2 min
- clearance ([6]; read-out: mean Cl (converted)): 3.28 L/h/kg
- Vd ([6]; read-out: mean Vss): 1.98 L/kg
